# In US7365080B2, “Pharmaceutical compositions comprising thieno[2,3-c]pyridine derivatives and use thereof” (Rimonyx Pharmaceuticals Ltd., priority 2003, dated 2008):
# Biological target: T1, L-Selectin (Homo sapiens, UniProt P14151)
# T1 construct: purchased Research and Development Systems 728-LS
# T1 sequence (P14151 39-332 limits assumed): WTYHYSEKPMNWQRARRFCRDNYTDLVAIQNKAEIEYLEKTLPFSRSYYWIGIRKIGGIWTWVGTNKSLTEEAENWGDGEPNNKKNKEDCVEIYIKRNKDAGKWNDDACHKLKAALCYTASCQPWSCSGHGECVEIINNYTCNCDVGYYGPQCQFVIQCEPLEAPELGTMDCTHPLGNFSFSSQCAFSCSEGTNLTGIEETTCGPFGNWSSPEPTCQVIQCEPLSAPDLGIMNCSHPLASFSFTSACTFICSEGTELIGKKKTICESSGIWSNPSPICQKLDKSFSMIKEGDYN
# Assay: ELISA: inhibition of L-selectin/IgG binding to immobilized heparin (Heparin-BSA)
# Details: L-Selectin binding to heparin
# Protocol: The inhibitory effect of the compounds of the present invention can be evaluated by several methods in vitro. One assay for measuring GAG-ECAM binding, exemplified herein below, detects the binding of L selectin/IgG to immobilized heparin. Another assay utilizes immobilized L-selectin, or L-selectin fused to protein domains other than IgG. The amount of bound L-selectin is determined by an ELISA assay using, for example, a monoclonal antibody raised against L-selectin, which is conjugated to horseradish peroxidase. […] The Dregg-55 antibody was also shown to inhibit L-selectin-dependent adhesion in vitro, neutrophil accumulation in vitro and inflammation in vivo (Co M. S. et al, Immunotechnology 493: 253-266, 1999).
# An in vitro assay was used to assess the ability of test compounds according to formula I to inhibit the interactions of L-selectin with HS-GAGs. The assay was suitable for determining the concentration required for 50% inhibition (IC-50) for each specific compound. In the assay, the GAG used was heparin. Thus, porcine intestinal mucosa heparin conjugated to Bovine Serum Albumin (Heparin-BSA; Sigma Cat. No. H0403) at […] in Phosphate Buffered Saline (PBS; pH 6.5) was added to a 96 well polystyrene ELISA plate (NUNC Cat. No. 442404; 0.1 ml per well) and incubated Over Night (ON) at 4° C. Following the incubation, the plate was washed thoroughly, by immersion, with de-ionized water and PBS (pH 6.5). The ELISA plate was then blocked with BSA (ICN Cat. No.160069, 3%, 200 μl per well) for 1 hour at Room Temperature (RT). Following blocking, the plate was washed with de-ionized water, and then with PBS (pH 6.5) containing Tween 20 (Sigma Cat. No. P-1379, 0.05%). Compounds were synthesized or purchased from ChemDiv Labs (San Diego, Calif.), dissolved in DMSO, diluted in PBS and added to the wells at various concentrations in the range of 0.01 to 300 μM. Recombinant Human L-Selectin/IgG (Research and Development Systems Cat. No.728-LS) dissolved in PBS supplemented with BSA (0.1%) and calcium chloride (1 mM) was added to the ELISA plate (100 μl per well) and incubated for 60 minutes at RT with shaking. Following incubation, the plate was washed with de-ionized water and three times with PBS (pH 6.5) containing Tween 20. Anti-Human IgG Peroxidase Conjugate (1:5000; Sigma Product No. A8667) diluted in PBS supplemented with BSA (0.1%) and calcium chloride (1 mM) was added to the ELISA plate (100 μl per well) and incubated for 30 minutes at RT with shaking. The plate was then washed with de-ionized water and three times with PBS (pH 6.5) containing Tween 20. The peroxidase substrate cromogen, TMB (Dako Cat. No. S1599) was added (100 μl per well) to the ELISA plate and incubated at room temperature. After 15 minutes ELISA Stop Solution (hydrochloric acid 1N, sulfuric acid 3N) was added (200 μl per well) to stop the peroxidase catalyzed colorimetric reaction. The Optical Density (OD) of the samples was measured at 450 nm using an ELISA plate reader (Dynatech MR5000). Data were analyzed with Graphpad Prism software and IC-50 values were established. The P-selectin assay was carried out in a similar fashion, except that Recombinant Human P-Selectin/IgG (Research and Development Systems Cat.No.137-PS) was used.
row,SMILES,IC50 [µM]
1,CCN(CC)S(=O)(=O)c1ccc(C(=O)Nc2sc3c(c2-c2nc4ccccc4s2)CCN(C(C)C)C3)cc1 [Compound 3],10
2,CC(C)N1CCc2c(sc(NC(=O)c3ccc(S(=O)(=O)N4CCOCC4)cc3)c2-c2nc3ccccc3s2)C1 [Compound 10],25
3,CCOC(=O)c1c(NC(=O)c2ccc(S(=O)(=O)N3CCCc4ccccc43)cc2)sc2c1CCN(C(C)C)C2 [Compound 16],11
4,CCOC(=O)c1c(NC(=O)c2ccc(S(=O)(=O)N3CCCCCC3)cc2)sc2c1CC(C)(C)NC2(C)C [Compound 18],11
5,C=CCN(CC=C)S(=O)(=O)c1ccc(C(=O)Nc2sc3c(c2C(=O)OC)CC(C)(C)NC3(C)C)cc1 [Compound 19],43
6,CCOC(=O)c1c(NC(=O)c2ccc(S(=O)(=O)N(CC)CC)cc2)sc2c1CC(C)(C)NC2(C)C [Compound 20],26
7,CN(C1CCCCC1)S(=O)(=O)c1ccc(C(=O)Nc2sc3c(c2C(N)=O)CC(C)(C)NC3(C)C)cc1 [Compound 21],36
8,CC1(C)Cc2c(sc(NC(=O)c3ccc(S(=O)(=O)N4CCCc5ccccc54)cc3)c2C(N)=O)C(C)(C)N1 [Compound 25],12
9,CCN1CCc2c(sc(NC(=O)c3ccc(S(=O)(=O)N(C)c4ccccc4)cc3)c2C(=O)NC)C1 [Compound 27],9

# Same assay, conditions: L-Selectin binding to heparin; 50 μM
row,SMILES,inhibition at 50 µM [%]
1,CCN(CC)S(=O)(=O)c1ccc(C(=O)Nc2sc3c(c2-c2nc4ccccc4s2)CCN(C)C3)cc1 [Compound 2],60
2,COCCN(CCOC)S(=O)(=O)c1ccc(C(=O)Nc2sc3c(c2-c2nc4ccccc4s2)CCN(C)C3)cc1 [Compound 4],43
3,CN1CCc2c(sc(NC(=O)c3ccc(S(=O)(=O)N(C)c4ccccc4)cc3)c2-c2nc3ccccc3s2)C1 [Compound 6],44
4,CCN1CCc2c(sc(NC(=O)c3ccc(S(=O)(=O)N4CCCCCC4)cc3)c2-c2nc3ccccc3s2)C1 [Compound 8],46
5,CN1CCc2c(sc(NC(=O)c3ccc(S(=O)(=O)N4CCOCC4)cc3)c2-c2nc3ccccc3s2)C1 [Compound 9],52
6,CCCCN(CC)S(=O)(=O)c1ccc(C(=O)Nc2sc3c(c2C(N)=O)CCN(C(C)C)C3)cc1 [Compound 12],55
7,CC(C)N1CCc2c(sc(NC(=O)c3ccc(S(=O)(=O)N(C)c4ccccc4)cc3)c2C(N)=O)C1 [Compound 13],68
8,CC1CC(C)CN(S(=O)(=O)c2ccc(C(=O)Nc3sc4c(c3C(N)=O)CCN(C(C)C)C4)cc2)C1 (stereo not shown) [Compound 14],35
9,CCCCN(C)S(=O)(=O)c1ccc(C(=O)Nc2sc3c(c2C(=O)OCC)CCN(C(C)C)C3)cc1 [Compound 15],40
10,CCOC(=O)c1c(NC(=O)c2ccc(S(=O)(=O)N3CCN(C(=O)OCC)CC3)cc2)sc2c1CCN(C(C)C)C2 [Compound 17],21
11,CCN(CC)S(=O)(=O)c1ccc(C(=O)Nc2sc3c(c2C(N)=O)CC(C)(C)NC3(C)C)cc1 [Compound 22],35
12,CCCCN(C)S(=O)(=O)c1ccc(C(=O)Nc2sc3c(c2C(N)=O)CC(C)(C)NC3(C)C)cc1 [Compound 23],39
13,CCOC(=O)N1CCN(S(=O)(=O)c2ccc(C(=O)Nc3sc4c(c3C(N)=O)CC(C)(C)NC4(C)C)cc2)CC1 [Compound 24],29
14,COCCN(CCOC)S(=O)(=O)c1ccc(C(=O)Nc2sc3c(c2C(N)=O)CC(C)(C)NC3(C)C)cc1 [Compound 26],23
15,"CCN1CCc2c(sc(NC(=O)c3ccc(S(=O)(=O)N(CC)Cc4ccccc4)cc3)c2C(N)=O)C1 [Compound 28, 2-[[4-[[ethyl(phenylmethyl)amino]sulfonyl]benzoyl]amino]-6-ethyl-4,5,6,7-tetrahydrothieno[2,3-c]pyridine-3-carboxamide]",63
16,"CCN1CCc2c(sc(NC(=O)c3ccc(S(=O)(=O)N4CCN(C)CC4)cc3)c2C(N)=O)C1 [Compound 29, 2-[[4-[(4-methyl-1-piperazinyl)sulfonyl]benzoyl]amino]-6-ethyl-4,5,6,7-tetrahydrothieno[2,3-c]pyridine-3-carboxamide]",30

row,SMILES,inhibition at 50 µM [%]
1,CCCN(CCC)S(=O)(=O)c1ccc(C(=O)Nc2sc3c(c2-c2nc4ccccc4s2)CCN(C)C3)cc1 [Compound 30],21
2,CCCCN(CCCC)S(=O)(=O)c1ccc(C(=O)Nc2sc3c(c2-c2nc4ccccc4s2)CCN(C)C3)cc1 [Compound 31],27
3,CCCCN(C)S(=O)(=O)c1ccc(C(=O)Nc2sc3c(c2-c2nc4ccccc4s2)CCN(C)C3)cc1 [Compound 32],26
4,CCCCN(CC)S(=O)(=O)c1ccc(C(=O)Nc2sc3c(c2-c2nc4ccccc4s2)CCN(C)C3)cc1 [Compound 33],21
5,C=CCN(CC=C)S(=O)(=O)c1ccc(C(=O)Nc2sc3c(c2-c2nc4ccccc4s2)CCN(C)C3)cc1 [Compound 34],25
6,CN1CCc2c(sc(NC(=O)c3ccc(S(=O)(=O)N4CCCC4)cc3)c2-c2nc3ccccc3s2)C1 [Compound 35],24
7,CN1CCc2c(sc(NC(=O)c3ccc(S(=O)(=O)N4CCCCC4)cc3)c2-c2nc3ccccc3s2)C1 [Compound 36],26
8,CC1CCCN(S(=O)(=O)c2ccc(C(=O)Nc3sc4c(c3-c3nc5ccccc5s3)CCN(C)C4)cc2)C1 (stereo not shown) [Compound 37],23
9,CC1CCN(S(=O)(=O)c2ccc(C(=O)Nc3sc4c(c3-c3nc5ccccc5s3)CCN(C)C4)cc2)CC1 [Compound 38],33
10,CC1CC(C)CN(S(=O)(=O)c2ccc(C(=O)Nc3sc4c(c3-c3nc5ccccc5s3)CCN(C)C4)cc2)C1 (stereo not shown) [Compound 39],24
11,CCCN(CCC)S(=O)(=O)c1ccc(C(=O)Nc2sc3c(c2-c2nc4ccccc4s2)CCN(CC)C3)cc1 [Compound 40],25
12,C=CCN(CC=C)S(=O)(=O)c1ccc(C(=O)Nc2sc3c(c2-c2nc4ccccc4s2)CCN(CC)C3)cc1 [Compound 41],25
13,CCCCN(CC)S(=O)(=O)c1ccc(C(=O)Nc2sc3c(c2-c2nc4ccccc4s2)CCN(C(C)C)C3)cc1 [Compound 42],27
14,C=CCN(CC=C)S(=O)(=O)c1ccc(C(=O)Nc2sc3c(c2-c2nc4ccccc4s2)CCN(C(C)C)C3)cc1 [Compound 43],17
15,CC(C)N1CCc2c(sc(NC(=O)c3ccc(S(=O)(=O)N4CCCCC4)cc3)c2-c2nc3ccccc3s2)C1 [Compound 44],29
16,CC(C)N1CCc2c(sc(NC(=O)c3ccc(S(=O)(=O)N4CCCCC4C)cc3)c2-c2nc3ccccc3s2)C1 (stereo not shown) [Compound 45],24

# Test system: Human T-lymphocytes on human endothelial cells
# Assay: T-lymphocyte rolling on endothelial cells under shear flow
# Assay type: cell-based
# Details: Homo sapiens; 25 μM; high shear flow; read-out: inhibition of cell rolling
# Protocol: Human T-lymphocytes were passed over a layer of human endothelial cells according to the method of Lawrence and Springer (Cell 65: 859-873, 1991). At high shear flow, migrating T-lymphocytes adhered transiently and intermittently to the endothelial cells as a consequence of HS-GAG-ECAM interaction. The resulting T-cell rolling was recorded by video camera and the number of rolling cells per defined area during a constant period of time was determined. Soluble heparin (competitor of cell surface GAGs) abolished T-cell rolling under high shear flow conditions. Compounds no. 1, 11 and 25, each at 25 μM, inhibited cell rolling by 90, 90 and 70%, respectively.
row,SMILES,inhibition at 25 µM [%]
1,CC1(C)Cc2c(sc(NC(=O)c3ccc(S(=O)(=O)N4CCCc5ccccc54)cc3)c2C(N)=O)C(C)(C)N1 [Compound 25],70

# Same assay, conditions: test compound (25 μM); shear flow
row,SMILES,% rolling [%]
1,CC1(C)Cc2c(sc(NC(=O)c3ccc(S(=O)(=O)N4CCCc5ccccc54)cc3)c2C(N)=O)C(C)(C)N1 [Compound 25],<10
